What all share (format): biochemical
The target in one assay is T1, Aurora B kinase (Homo sapiens, UniProt Q96GD4).
T1 construct: purchased Cell signaling
Put plainly: Aurora B kinase assay ([γ-33P]ATP, CHOCKtide substrate). Conditions: 1.0 μM test compound. The method in brief: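 Recombinant Aurora A (1 ng) or Aurora B (2.5 ng) incubated with test compound, CHOCKtide (1 μg) and [γ-33P]ATP/ATP at 10 μM (Aurora A) or 40 μM (Aurora B), 30 min at 33 °C. Stopped with phosphoric acid; filter-bound 33P counted; IC50 = half-maximal inhibition.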

In another assay the target is T2, Flt3 kinase (Homo sapiens, UniProt P36888).
T2 construct: recombinant N-terminal 6×His-tagged Flt3 kinase domain construct expressed from baculovirus; 6xHis (N); made in house
T2 sequence (P36888 610-943 limits assumed): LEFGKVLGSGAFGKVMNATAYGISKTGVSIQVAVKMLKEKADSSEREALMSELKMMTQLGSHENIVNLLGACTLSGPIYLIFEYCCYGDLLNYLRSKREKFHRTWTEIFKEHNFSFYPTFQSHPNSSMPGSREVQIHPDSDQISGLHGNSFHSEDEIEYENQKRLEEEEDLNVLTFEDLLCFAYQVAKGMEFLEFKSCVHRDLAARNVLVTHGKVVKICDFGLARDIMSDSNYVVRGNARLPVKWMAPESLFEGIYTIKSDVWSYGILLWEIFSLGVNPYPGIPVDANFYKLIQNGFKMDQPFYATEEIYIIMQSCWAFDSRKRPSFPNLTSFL
Put plainly: Flt3 kinase assay (33P incorporation into Poly(Glu-Tyr)). Conditions: 100 nM test compound; read-out: Inhibition at 100 nM (%) Flt-3. The method in brief: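 Baculovirus-expressed His-tagged Flt3 kinase domain (5 ng) with Poly(Glu-Tyr) 4:1 substrate, 100 μM ATP plus [33P]-γ-ATP, in MOPS pH 7.0 buffer, 30 min at 30 °C. Compound tested at a single 100 nM concentration; filter-bound radioactivity counted and percent inhibition calculated relative to DMSO control.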

In another assay the target is T3, c-Met kinase (Homo sapiens, UniProt P08581).
T3 construct: recombinant N-terminal 6×His-tagged c-Met kinase domain construct expressed from baculovirus; 6xHis (N); made in house
T3 sequence (P08581 1078-1345 limits assumed): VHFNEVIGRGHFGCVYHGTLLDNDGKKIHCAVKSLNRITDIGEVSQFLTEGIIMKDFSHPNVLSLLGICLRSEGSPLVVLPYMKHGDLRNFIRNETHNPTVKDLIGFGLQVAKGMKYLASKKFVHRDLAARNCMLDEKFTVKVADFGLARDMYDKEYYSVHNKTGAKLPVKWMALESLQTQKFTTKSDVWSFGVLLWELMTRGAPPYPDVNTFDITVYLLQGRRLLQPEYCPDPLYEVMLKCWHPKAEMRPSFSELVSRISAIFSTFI
Put plainly: c-Met kinase assay (33P incorporation into Poly(Glu-Tyr)). The following applies: 500 nM test compound. The method in brief: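 Recombinant N-terminal 6×His-tagged c-Met kinase domain (baculovirus-expressed, 5 ng) acted on Poly(Glu-Tyr) 4:1 with 100 μM ATP plus [33P]-γ-ATP in MOPS pH 7.0 buffer, 30 min at 30° C. Compound was at 500 nM. Filter-retained radioactivity was compared with the DMSO control to give percent inhibition.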

The next assay addresses T4, PDGFR-β kinase (Homo sapiens, UniProt P09619).
T4 construct: recombinant N-terminal 6×His-tagged PDGFR-β kinase domain construct expressed by baculovirus; 6xHis (N); made in house
Put plainly: PDGFR-β kinase assay (33P incorporation into Poly(Glu-Tyr)). Conditions: 500 nM test compound. The method in brief: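 His-tagged PDGFR-β kinase domain (55 ng) with Poly(Glu-Tyr) 4:1, 30 μM ATP plus [33P]-γ-ATP, pH 7.0 MnCl2 buffer, and 500 nM compound for 30 min at 30° C. Filter-bound radioactivity counted; inhibition computed relative to DMSO control.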

T4 sequence (P09619 600-962 limits assumed): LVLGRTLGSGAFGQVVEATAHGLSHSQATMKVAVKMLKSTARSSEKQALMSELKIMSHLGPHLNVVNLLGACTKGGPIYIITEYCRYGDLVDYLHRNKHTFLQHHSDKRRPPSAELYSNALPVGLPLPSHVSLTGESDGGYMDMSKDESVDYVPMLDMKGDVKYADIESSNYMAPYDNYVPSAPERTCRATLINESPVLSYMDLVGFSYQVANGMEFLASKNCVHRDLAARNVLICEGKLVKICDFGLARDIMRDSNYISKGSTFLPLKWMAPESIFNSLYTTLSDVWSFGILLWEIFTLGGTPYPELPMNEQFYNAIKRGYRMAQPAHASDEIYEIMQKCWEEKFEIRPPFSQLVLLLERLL
T1 sequence (Q96GD4 whole entry): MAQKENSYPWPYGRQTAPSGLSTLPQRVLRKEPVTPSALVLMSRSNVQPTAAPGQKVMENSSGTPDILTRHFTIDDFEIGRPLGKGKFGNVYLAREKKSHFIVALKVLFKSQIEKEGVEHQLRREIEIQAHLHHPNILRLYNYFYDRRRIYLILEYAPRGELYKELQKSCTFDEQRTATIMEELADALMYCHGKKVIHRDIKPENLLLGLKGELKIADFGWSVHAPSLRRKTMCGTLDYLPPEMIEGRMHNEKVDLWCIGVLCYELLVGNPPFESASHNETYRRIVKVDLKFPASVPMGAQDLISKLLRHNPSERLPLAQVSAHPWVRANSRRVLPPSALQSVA

One may read the inhibition as the change of the read-out against control, counted positive when it falls. Consider `CCOC(=O)CCc1c(/C=C2\C(=O)Nc3ccc(NC(=O)c4ccc(OC)cc4)cc32)[nH]c2c1C(=O)CCC2` [DCB-70141, (Z)-ethyl 3-(2-((5-(4-methoxybenzamido)-2-oxoindolin-3-ylidene)methyl)-4-oxo-4,5,6,7-tetrahydro-1H-indol-3-yl)propanoate], for which, at Aurora B kinase, the inhibition at 1 µM is -23%. Besides, at Flt3 kinase, the inhibition at 0.1 µM stood at 10.7%. Moreover, the inhibition at 0.5 µM against c-Met kinase was -1.2%; on PDGFR-β kinase, 1.4%.
Take `COc1ccc(C(=O)Nc2ccc3c(c2)/C(=C/c2[nH]c4c(c2CCC(=O)O)C(=O)CCC4)C(=O)N3)cc1` [DCB-70143, (Z)-3-(2-((5-(4-methoxybenzamido)-2-oxoindolin-3-ylidene)methyl)-4-oxo-4,5,6,7-tetrahydro-1H-indol-3-yl)propanoic acid]: the inhibition at 1 µM against Aurora B kinase was 9.1%. Further, the inhibition at 0.1 µM on Flt3 kinase is 6%. For the same compound, the inhibition at 0.5 µM at c-Met kinase is -8.2%; on PDGFR-β kinase, 1%.
For `CN(c1cccc(Cl)c1)S(=O)(=O)c1ccc2c(c1)/C(=C/c1[nH]c3c(c1CCC(=O)O)C(=O)CCCC3)C(=O)N2` [DCB-70148, (Z)-3-(2-((5-(N-(3-chlorophenyl)-N-methylsulfamoyl)-2-oxoindolin-3-ylidene)methyl)-4-oxo-1,4,5,6,7,8-hexahydrocyclohepta[b]pyrrol-3-yl)propanoic acid] the same measures were 30.2%, 9.7%, 74.9% and 16.1%.
For `O=C(O)CCc1c(/C=C2\C(=O)Nc3ccc(S(=O)(=O)Nc4ccc(F)c(Cl)c4)cc32)[nH]c2c1C(=O)CCCC2` [DCB-70149, (Z)-3-(2-((5-(N-(3-chloro-4-fluorophenyl)sulfamoyl)-2-oxoindolin-3-ylidene)methyl)-4-oxo-1,4,5,6,7,8-hexahydrocyclohepta[b]pyrrol-3-yl)propanoic acid], on Aurora B kinase, the inhibition at 1 µM is 18.7%. Also, the inhibition at 0.1 µM at Flt3 kinase was found to be 7.3%. Further, the inhibition at 0.5 µM was 8.4% on c-Met kinase and 10.8% on PDGFR-β kinase.

Values taken from patent US7897602B2, “Indolinone compounds as kinase inhibitors” (Development Center for Biotechnology, priority 2009, dated 2011).
